According to US20030187267A1, “Novel 1,2,3,4-tetrahydroisoquinoline, their preparation method and their use as fungicides” (priority 2000, published 2003):

Tested on: Candida Albicans 44858
Test: Antifungal activity in mice infected intravenously with Candida Albicans 44858 (dead mice counted)
Format: in vivo
Details: female mice, 106 CFU per mouse into the tail vein
Protocol: Antifungal activity of the product of Example 1 or product P.
Female mice were used weighing 18 to 22 g. A quantity of Candida Albicans 44858 at a rate of 10^6 CFU per mouse (CFU: colony forming unit) is administered into the vein of the tail. The mice are separated into 5 batches of 5 mice and they are treated as follows:
group 1: the mice are treated with product P 25 mg/kg by oral route
group 2: the mice are treated with product P by intraperitoneal route at a rate of 25 mg/kg
group 3: the mice are treated with fluconazole (25 mg/kg by oral route).
group 4: the mice are treated with fluconazole (25 mg/kg by intraperitoneal route).
group 5: the mice receive no antifungal treatment.
For a period of 22 days, the dead mice are counted.

CCC(C)n1ncn(-c2ccc(/C=C/CN3CCc4cc(OC[C@H]5CO[C@](Cn6ccnc6)(c6ccc(Cl)cc6Cl)O5)ccc4C3)cc2)c1=O (relative stereo) [Example 1, 2,4-dihydro-4-[4-[3-[6-[[(cis)-2-(2,4-dichlorophenyl)-2-(1H-imidazol-1-ylmethyl)-1,3-dioxolan-4-yl]-methoxy]-1,2,3,4-tetrahydro-2-isoquinolinyl]-1(E)-propenyl]-phenyl]-2-(1-methylpropyl)-3H-1,2,4-triazol-3-one.]
Antifungal activity (dead mice counted for a period of 22 days) (25 mg/kg by intraperitoneal route 1 hour after infection): excellent activity | Antifungal activity (dead mice counted for a period of 22 days) (25 mg/kg by oral route 1 hour after infection): excellent activity
